From PMC11561622, “Evaluating Antimalarial Proteasome Inhibitors for Efficacy in Babesia Blood Stage Cultures” (ACS Omega, 2024)

Columns and labels:
[1] = test system: B. divergens; design: method as in PMID 30103207; conditions: bovine erythrocyte cultures, cited from earlier work
[2] = test system: β2 subunit of Bd20S; assay: Fluorogenic kinetic assay of enriched Bd20S with PA28α and the β2 substrate Z-VLR-amc (50 mM HEPES pH 7.5, 1 mM DTT), no preincubation stated, rate of amc release read between 60 and 90 min, 8 µL volume.; type: biochemical; conditions: n = 3
Procedure: (§1) To assess the enzyme activity, 8 ng of purified preparation was preincubated with 0 to 4000 nM recombinant human PA28α for 1 h at room temperature (RT). The enzyme activity was then assayed with 50 μM Suc-LLVY-amc in 50 mM HEPES, pH 7.5, and 1 mM DTT in the presence of 250 nM PA28α. To evaluate the substrate specificity for β5, β2, and β1 subunits, a set of available proteasome substrates was screened that included Suc-LLVY-amc, Z-VLR-amc and Z-LLE-amc, Ac-FnKL-amc, Ac-nPnD-amc, Ac-RYFD-amc, Ac-FRSR-amc, and Ac-GWYL-amc. Bd20S was initially activated with PA28α and the rate of release of 7-amino-4-methyl coumarin (amc) was quantified over time following addition of the substrates. For control, 6 μM marizomib (MZB, MedChemExpress) was used to ensure substrate cleavage by proteasome. For inhibition studies, IC50 values were measured using presteady-state enzyme kinetics. Five or 100 nL of inhibitor at concentrations ranging from 10 mM to 170 nM was dispensed using the ECHO 650 liquid handler (Beckman). Subsequently, 4 μL of 100 μM substrate was added, followed by 4 μL of Bd20S, and the release of amc was immediately measured. The IC50 values were calculated from the fluorescence units per second (RFU/s) recorded between 60 and 90 min after the reaction. […] Data were analyzed and plotted using GraphPad software.

[3] = test system: β1 subunit of Bd20S; assay: Fluorogenic kinetic assay of enriched Bd20S with PA28α and the β1 substrate Ac-nPnD-amc (50 mM HEPES pH 7.5, 1 mM DTT), no preincubation stated, rate of amc release read between 60 and 90 min, 8 µL volume.; type: biochemical; conditions: n = 3
Procedure: as §1

[4] = test system: β5 subunit of Bd20S; assay: Fluorogenic kinetic assay of enriched Bd20S with PA28α and the β5 substrate Ac-FnKL-amc (50 mM HEPES pH 7.5, 1 mM DTT), no preincubation stated, rate of amc release read between 60 and 90 min, 8 µL volume.; type: biochemical; conditions: n = 3
Procedure: as §1

[5] = test system: endogenous polyubiquitinated proteins in B. divergens; assay: Western blot of polyubiquitinated proteins in treated B. divergens cultures; type: cell-based, Babesia divergens; conditions: 200 nM, 24 h, anti-Ubiquitin K48 western blot, vs 0.1% DMSO
Procedure: To assess the on-target effect of proteasome inhibition, protein lysates of B. divergens isolated from bovine erythrocyte cultures were evaluated for the accumulation of polyubiquitinated proteins. The B. divergens cultures underwent two 12 h treatments (totaling 24 h) with 200 nM of the inhibitor in culture medium. Parasites were released from RBCs and protein lysates were prepared as described above. The resulting samples were then centrifuged at 15,000g for 15 min at 4 °C and protein concentrations of the resulting supernatant were determined using Bradford assay.[29] Samples were prepared for SDS-PAGE in reducing Laemmli buffer supplemented with β-mercaptoethanol. Ten micrograms of protein was applied per lane and proteins were separated on gradient (4–15%) Criterion TGX Stain-Free Precast gels (BioRad) in Tris-Glycine-SDS running buffer (25 mM Tris, 192 mM glycine, and 0.1% (w/vol) SDS, pH 8.3) and visualized using TGX stain-free chemistry (BioRad). […] After washing (3 × 10 min) in PBS-T, signals were detected using Clarity Max Western ECL substrate (BioRad), visualized using a ChemiDoc MP imager, analyzed, and adjusted using the ImageLab freeware (BioRad).

[6] = test system: catalytic subunits of Bd20S; assay: Activity-based probe labeling (Me4BodipyFL-Ahx3Leu3VS) of Bd20S catalytic subunits; type: binding, Babesia divergens; conditions: lysates from CFZ- and CPB-treated cells, vs vehicle
[7] = test system: B. divergens proteasome β5 subunit; type: biochemical, Babesia divergens; conditions: Suc-LLVY-amc; for proteasome activity relative to activity with PA28α: Buffer B
Procedure: (§2) B. divergens and B. microti protein lysates were prepared from infected red blood cells. Briefly, red blood cells were lysed with 0.15% saponin prepared in 1× Phosphate-Buffered Saline (PBS), pH 7.5, to release intact parasites. Parasites were washed with 1× PBS, pH 7.5 (PBS), by centrifugation and the pellets were stored at −80 °C in PBS plus 20% glycerol. To prepare protein lysates for enzymatic assays, parasites were thawed and transferred to 50 mM HEPES (pH 7.5), 10 μM E64, 100 μM AESBF, 1 μM Pepstatin A, and 1 mM DTT (all Sigma-Aldrich). Cells were ruptured by ultrasonication with an amplitude of 0.5 for 3 cycles of 15 s on ice. To prepare protein lysates for activity-based probing and proteasome purification, parasites were thawed and transferred to 20 mM Tris-HCl, pH 7.5, 1 mM DTT, 10 μM E64, and 5% glycerol. The lysate was sonicated on ice for 3 times and clarified by centrifugation at 17,000g for 10 min at 4 °C.
To further improve the detection of the β5 subunit activity with the Suc-LLVY-amc substrate of the Babesia proteasome as previously published,[27] we aimed to further optimize assay conditions. However, to reduce the number of experimental animals in the study, assay conditions were optimized using protein lysates of B. divergens, which can be grown in vitro, instead of B. microti lysates, which need to be maintained in mice. […] Assay conditions were optimized in 50 μL volumes in round-bottom 96-well plates. Two assay buffers were evaluated. Buffer A, as described previously,[27] consists of 20 mM HEPES, pH 8, 1 mM ATP, and 1 μM E64, while Buffer B consists of 50 mM HEPES, pH 7.5, 5 mM ATP, 10 μM E64, 100 μM AESBF, 1 μM Pepstatin A, and 1 mM DTT. Buffers A and B were tested with either 0.02% SDS or 6.67 ng of PA28 as activators of the proteasome activity. […] The release of the AMC fluorophore was monitored at 37 °C in a Synergy HTX multimode reader (BioTek) with excitation and emission wavelengths set to 340 and 460 nm, respectively.
Proteasome activity in B. microti and B. divergens lysates was screened in the presence of carmaphycin B (CPB) and numerous analogs that were previously designed to target the P. falciparum 20S proteasome.[30] A pool of lysates was made for each species to ensure that equal amounts of the lysates were used in each inhibition reaction. Inhibitors were transferred to black 384-well plates with the ATS acoustic transfer system (ATS-100, Biosera). Lysates were incubated with inhibitors for 30 min at room temperature and activity was assayed in 30 μL reactions. Each reaction mixture contained 5 μL of Babesia lysate, 10 nL of the inhibitor (final concentration of 133.33 nM), and 25 μL of assay buffer with 25 μM substrate succinyl-Leu-Leu-Val-Tyr-7-amido-4-methylcoumarin (Suc-LLVY-amc). The release of the AMC fluorophore was monitored at 37 °C in a Synergy HTX multimode reader (BioTek Instruments, Winooski, VT) with excitation and emission wavelengths set to 340 and 460 nm, respectively. Activity was quantified as RFU per second and normalized to the DMSO control reactions.

[8] = test system: B. microti proteasome β5 subunit; assay: β5 proteasome activity in B. microti lysates (Suc-LLVY-amc); type: biochemical, Babesia microti; conditions: 133.33 nM inhibitor, relative to DMSO
Procedure: as §2
To further improve the detection of the β5 subunit activity with the Suc-LLVY-amc substrate of the Babesia proteasome as previously published,[27] we aimed to further optimize assay conditions. However, to reduce the number of experimental animals in the study, assay conditions were optimized using protein lysates of B. divergens, which can be grown in vitro, instead of B. microti lysates, which need to be maintained in mice. […] Two assay buffers were evaluated. […] The release of the AMC fluorophore was monitored at 37 °C in a Synergy HTX multimode reader (BioTek) with excitation and emission wavelengths set to 340 and 460 nm, respectively.
Proteasome activity in B. microti and B. divergens lysates was screened in the presence of carmaphycin B (CPB) and numerous analogs that were previously designed to target the P. falciparum 20S proteasome.[30] […] The release of the AMC fluorophore was monitored at 37 °C in a Synergy HTX multimode reader (BioTek Instruments, Winooski, VT) with excitation and emission wavelengths set to 340 and 460 nm, respectively. Activity was quantified as RFU per second and normalized to the DMSO control reactions.

[9] = test system: Bd20S; assay: Fluorogenic substrate screen with Bd20S/PA28α with and without marizomib; type: biochemical, Babesia divergens; conditions: 6 μM MZB
Procedure: as §1

## COc1ccc(C[C@H](NC(=O)[C@H](C)NC(=O)CN2CCOCC2)C(=O)N[C@@H](Cc2ccccc2)C(=O)C2(C)CO2)cc1 (stereo in doubt) [ONX-0914]
[1]
  concentration range significantly reducing B. divergens growth: 25 to 200 nM

## CCCCCC(=O)N[C@H](C(=O)N[C@@H](CCS(C)(=O)=O)C(=O)N[C@@H](CC(C)C)C(=O)[C@@]1(C)CO1)C(C)C [CPB, carmaphycin B]
[2]
  IC50: 34.3 nM
[3]
  IC50: > 3000 nM
[4]
  IC50: 27.9 nM

## CC(C)C[C@H](NC(=O)[C@H](CCc1ccccc1)NC(=O)CN1CCOCC1)C(=O)N[C@@H](Cc1ccccc1)C(=O)N[C@@H](CC(C)C)C(=O)[C@@]1(C)CO1 [carfilzomib]
[5]
  accumulation of endogenous polyubiquitinated proteins: marked accumulation
[6]
  labeling of catalytic subunits by activity-based probe: significantly reduced
[1]
  concentration range significantly reducing B. divergens growth: 25 to 200 nM
[1]; read-out: EC50 B. divergens growth
  EC50: 29 nM
[7]; 133.33 nM inhibitor, relative to DMSO
  inhibition of β5 activity in B. divergens lysate (in words): completely inactivate
[7]; B. divergens lysate, with PA28α
  decrease of enzyme activity: > 95%
[8]
  inhibition of β5 activity in B. microti lysate (in words): inhibited

## CC[C@H](C)[C@H](NC(=O)[C@H]([C@@H](C)CC)N(C)C(C)=O)C(=O)N[C@H](C(=O)N[C@@H](CC(C)C)C(=O)[C@@]1(C)CO1)[C@@H](C)O [epoxomicin]
[1]
  concentration range significantly reducing B. divergens growth: 25 to 200 nM

## C[C@@]12OC(=O)[C@]1([C@@H](O)[C@@H]1C=CCCC1)NC(=O)[C@@H]2CCCl [marizomib]
[9]
  activity with all fluorogenic substrates in presence of inhibitor: eliminated

## PA28α: recombinant human proteasome activator PA28α (Uniprot Q06323)
[7]; B. divergens lysate, compared with SDS
  increase of enzyme activity by activator: 3 fold

## PA28β: human proteasome activator subunit PA28β (BioTechne #E-382)
[7]; B. divergens lysate
  proteasome activity relative to activity with PA28α: 14.41%

## PA28γ: human proteasome activator subunit PA28γ (BioTechne #E-384)
[7]; B. divergens lysate
  proteasome activity relative to activity with PA28α: 12.83%
